Tests used:
Format in all cases: in vivo
[1] = system: Boophilus microplus Parkhurst strain, SP-resistant; experiment: Boophilus microplus dip test; settings: application rate 100 ppm, assessed after 7 days
Procedure, shortened: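 Adult engorged females of SP-resistant Parkhurst strain (8–10 per tube) fully immersed in compound diluted in water from a DMSO solution. Ticks then kept on filter discs in a climate-controlled room; efficacy scored from fertile egg laying at 7 days, with unclear eggs held about 42 days until hatch (100% = no fertile eggs).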

Ctenocephalides felis [2] = experiment: Ctenocephalides felis in vitro contact test with adult cat fleas; settings: application rate 5 μg/cm^2 (500 g/ha); after 48 h; fleas dead or moribund
Procedure, shortened: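 Test tubes were coated with 250 μl acetone solution of compound, giving 5 μg/cm^2 at 900 ppm, then dried and stocked with 5-10 adult cat fleas. After 48 h at room temperature and ambient humidity, dead or moribund fleas were counted; efficacy given as % (100% = all dead or moribund).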

[3] = system: Anopheles gambiae strain RSPH (homozygot kdr); experiment: Anopheles test (ANPHGB surface treatment); settings: application rate 100 mg/m^2, exposure 30 minutes, 24 hours after contact, read-out: efficacy (mortality in %)
Experimental: Anopheles Test (ANPHGB Surface Treatment)
(§1) Solvent: acetone+2000 ppm rapeseed oil methyl ester (RME)
(§2) To produce an appropriate active ingredient formulation, the active ingredient is dissolved in the solvent (2 mg/ml). The active ingredient formulation is pipetted onto a glazed tile and, after it has dried off, adult mosquitoes of the species Anopheles gambiae strain RSPH (homozygot kdr) are placed onto the treated tile. The exposure time is 30 minutes.
(§3) 24 hours after contact with the treated surface, mortality in % is determined. 100% means that all the mosquitoes have been killed; 0% means that none of the mosquitoes have been killed.

Myzus persicae = Myzus persicae spray test; settings: application rate 100 g/ha; after 6 days
Procedure, shortened: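 Chinese cabbage leaf discs infested with all stages of green peach aphid were sprayed with compound formulated in solvent and water containing 1000 ppm emulsifier. Percent kill was assessed after 6 days, where 100% means all aphids dead and 0% none dead.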

Boophilus microplus = Boophilus microplus injection test; settings: application rate 20 μg/animal; injection into abdomen; assessed after 7 days
Procedure, shortened: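 DMSO formulation, 1 μl intra-abdominal injection, n=5 engorged adult females; climate-controlled room; score fertile eggs d7, unclear eggs held until larval hatch (~42 d); % efficacy, 100% = no fertile eggs.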

Ctenocephalides felis [4] = experiment: Ctenocephalides felis oral test; settings: application rate 100 ppm in citrated cattle blood; after 2 days
Procedure, shortened: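 Mortality in % was recorded 2 days after about 20 unfed adult cat fleas were allowed to imbibe citrated cattle blood containing the active ingredient through a parafilm membrane. The compound was first taken up in DMSO and then diluted with the blood to the desired concentration.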

Musca domestica = Musca domestica test; settings: application rate 100 ppm; adult houseflies; after 2 days
Procedure, shortened: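 Percent kill of adult houseflies is recorded 2 days after exposure, where 100% denotes all flies dead and 0% none. Flies (10 per vessel) feed from a sponge carrying sugar solution and the aqueous-diluted DMSO formulation.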

[5] = system: Anopheles funestus strain FUMOZ-R; experiment: Anopheles test (ANPHFU surface treatment); settings: 24 hours after contact, read-out: efficacy (mortality in %)
Experimental: Anopheles Test (ANPHFU Surface Treatment)
as §1
as §2, with “funestus” for “gambiae”, “FUMOZ-R (Hunt et al., Med Vet Entomol. 2005 September; 19 (3):271-5)” for “RSPH (homozygot kdr)”
as §3

Spodoptera frugiperda = Spodoptera frugiperda spray test; settings: application rate 100 g/ha; caterpillars; after 7 days
Procedure, shortened: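 Maize leaf discs were sprayed with compound formulated in solvent plus water containing 1000 ppm emulsifier, dried, then infested with Spodoptera frugiperda caterpillars. Efficacy in % mortality was scored after 7 days (100% all killed, 0% none).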

[6] = system: Aedes aegypti strain MONHEIM; experiment: Aedes test (AEDSAE surface treatment); settings: 24 hours after contact, read-out: efficacy (mortality in %)
Experimental: Aedes Test (AEDSAE Surface Treatment)
as §1
as §2, with “Aedes aegypti” for “Anopheles gambiae”, “MONHEIM” for “RSPH (homozygot kdr)”
as §3

[7] = application rate 20 mg/m^2, exposure 30 minutes
[8] = application rate 100 mg/m^2, exposure 30 minutes

In the case of `Cn1nc(C(F)(F)C(F)(F)F)c(C(F)(F)F)c1-n1cc(-c2cccc(NC(=O)c3ccncc3)c2)cn1` [Example 1-001, N-{3-[2′-Methyl-5′-(pentafluoroethyl)-4′-(trifluoromethyl)-2′H-1,3′-bipyrazol-4-yl]-phenyl}isonicotinamide], the “efficacy (laying of fertile eggs)” value [1] is reported as 95%, the efficacy (Ctenocephalides felis [2]) is reported as 100% and the mortality at 100 mg/m2 [3] is reported as 90 to 100%. For the same molecule, the efficacy (Myzus persicae) was 100%, the “efficacy (laying of fertile eggs)” value (Boophilus microplus) was 100% and the “efficacy (kill in %)” value (Ctenocephalides felis [4]) was 100%. For the same molecule, the “efficacy (kill in %)” value (Musca domestica) was 100%, the mortality at 20 mg/m2 [5, 7] was 90 to 100% and the mortality at 100 mg/m2 [5, 8] was 90 to 100%. It also gave an efficacy (Spodoptera frugiperda) of 100%, a mortality at 20 mg/m2 [6, 7] of 90 to 100% and a mortality at 100 mg/m2 [6, 8] of 90 to 100%.

Source: US10273226B2, “Pyrazolyl-heteroarylamides as pesticides” (Bayer Animal Health GmbH, priority 2014, dated 2019)
